# Test results as given in ChEMBL document CHEMBL1157171, “Structure-based virtual screening against SARS-3CL(pro) to identify novel non-peptidic hits” (Bioorg Med Chem, 2008).
# Key:
# [1] = biological target: Replicase polyprotein 1a (Severe acute respiratory syndrome-related coronavirus) (UniProt P0C6U8); experiment: Inhibition of human SARS coronavirus 3C like protease at 10 uM
# Replicase polyprotein 1a = Replicase polyprotein 1a (Severe acute respiratory syndrome-related coronavirus, UniProt P0C6U8); experiment: Inhibition of human SARS coronavirus 3C like protease
Compound,inhibition [1] [%],IC50 (Replicase polyprotein 1a) [µM]
Cc1cc2cc(CN(CCc3ccccc3C)C(=O)NCc3ccccc3)c(=O)[nH]c2cc1C,40,17.2
O=C(CSc1nc(C2CCCCC2)nc2ccccc12)NCc1ccco1,30,18.2
